Test results: patent US20220389009A1, “SUBSTITUTED 1,6-NAPHTHYRIDINE INHIBITORS OF CDK5” (Goldfinch Bio, Inc., priority 2019, published 2022)

Legend:
CDK5/p25 = CDK5/p25 (Homo sapiens, UniProt Q00535); test: CDK5 mobility shift assay (enzymatic activity of CDK5/p25); assay type: biochemical; conditions: for IC50: 0.154 nM CDK5/p25, FL peptide 29, 60 min at room temperature, read-out: CDK5 IC50; for CDK5/CDK2 specificity: fold more active against CDK5 than CDK2
Method: (§1) Compound potency was measured via a change in the enzymatic activity of CDK5/p25, and optionally of CDK2/CycA2. Enzymes, CDK5/p25 and CDK2/CycA2, were sourced from Carna Biosciences (Cat #04-106 and 04-103, respectively). Test compound stocks were diluted in 100% DMSO and serially diluted 3-fold in a 384-well plate using a TECAN EVO200 (TECAN). Staurosporine was used as a reference control compound in all assays.
(§2) Twenty nL of compound were transferred into a 384-well plate (Greiner 781201) using an Echo550 (Labcyte Inc). Enzyme, ATP, and 10 mM MgCl2 were preincubated at room temperature with the compound in assay buffer (50 mM HEPES pH 7.5, 1 mM EGTA, 0.01% Brij-35, 0.05% BSA, 2 mM DTT) for 30 minutes. Peptide substrate (FL peptide 29 (Perkin Elmer) for CDK5/p25; FL Peptide 18 (Perkin Elmer) for CDK2/CycA2) was added to initiate the reaction. The final assay contained 0.154 nM CDK5/p25 or 1.25 nM CDK2/CycA2, […] (for CDK5/p25) or 37 μM (for CDK2/CycA2) ATP, and 1.5 μM of the appropriate peptide substrate. The final DMSO concentration was <1%.
(§3) The CDK5/p25 reaction was incubated at room temperature for 60 min. The CDK2/CycA2 reaction was incubated at room temperature for 120 min. The reactions were quenched by the addition of 70 μL stopping buffer containing 0.5 M EDTA. Samples were analyzed using the EZ Reader (Perkin Elmer).
(§4) The results were expressed as % vehicle, where % vehicle=100×(U−C2)/(C1−C2), where U is the signal of sample, C1 is the average of the high controls (signal with no compound added), and C2 is the average of low controls (signal with the buffer in place of enzyme). The ICso is determined by fitting the percentage of inhibition as a function of compound concentrations using a 4-parameter fit defined as follows.
(§5) Y=Bottom+(Top−Bottom)/(1+10^((LobIC50-X)*Hill Slope)), where X is the log of the compound concentration, Y is the % vehicle or response at X, Top and Bottom are the plateaus in the same units as Y, and the Hill's Slope is unitless, and the ICso is the half-maximal inhibitory concentration.

CDK2/CycA2 = CDK2/CycA2 (Homo sapiens, UniProt P24941); test: CDK2 mobility shift assay (enzymatic activity of CDK2/CycA2); assay type: biochemical; conditions: 1.25 nM CDK2/CycA2, 37 μM ATP, FL Peptide 18, 120 min at room temperature; read-out: CDK2 IC50
Method: as §1, §2, §3, §4, §5

Chain of CDK5/p25 (Q00535 whole entry): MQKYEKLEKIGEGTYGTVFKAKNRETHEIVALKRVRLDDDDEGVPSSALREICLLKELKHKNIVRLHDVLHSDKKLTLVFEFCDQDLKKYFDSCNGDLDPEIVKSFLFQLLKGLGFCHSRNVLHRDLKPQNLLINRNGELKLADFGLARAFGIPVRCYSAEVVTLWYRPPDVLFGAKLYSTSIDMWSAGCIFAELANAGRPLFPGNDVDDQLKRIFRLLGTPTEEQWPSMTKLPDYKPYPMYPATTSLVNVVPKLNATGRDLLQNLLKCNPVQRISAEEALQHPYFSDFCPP
Chain of CDK5/p25 (Q15078 99-307 partner limits assumed): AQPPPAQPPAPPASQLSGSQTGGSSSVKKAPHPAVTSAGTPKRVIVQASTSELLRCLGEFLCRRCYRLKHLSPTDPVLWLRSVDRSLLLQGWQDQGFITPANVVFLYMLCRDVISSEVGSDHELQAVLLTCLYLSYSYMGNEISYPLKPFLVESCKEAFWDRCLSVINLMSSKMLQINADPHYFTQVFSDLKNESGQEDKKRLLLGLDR

| SMILES | IC50 (CDK5/p25) [nM] | CDK5/CDK2 specificity (CDK5/p25) | IC50 (CDK2/CycA2) [nM] |
| --- | --- | --- | --- |
| CN1CCC(C(C)(O)c2ccc3cnc(Nc4ccc(-c5ccc(=O)n(C)c5)cc4F)cc3n2)CC1 (stereo not drawn) [Compound 346] | 100 to 1000 | ++ (greater than 10-fold and less than or equal to 100-fold more active against CDK5 than CDK2) | > 1000 |
| CN1CCC(C)(Nc2ccc3cnc(Nc4ccc(-n5ccc(CO)n5)cc4F)cc3n2)CC1 [Compound 140, [1-[4-([2-[(1,4-dimethylpiperidin-4-yl)amino]-1,6-naphthyridin-7-yl]amino)-3-fluorophenyl]pyrazol-3-yl]methanol] | 100 to 1000 | + (10-fold or less more active against CDK5 than CDK2) | > 1000 |
| COC(=O)c1cnn(-c2ccc(Nc3cc4nc([C@](C)(O)C5CCN(C)CC5)ccc4cn3)c(F)c2)c1 [Compound 367, methyl 1-[3-fluoro-4-([2-[(1R)-1-hydroxy-1-(1-methylpiperidin-4-yl)ethyl]-1,6-naphthyridin-7-yl]amino)phenyl]pyrazole-4-carboxylate] | < 10 | ++ (greater than 10-fold and less than or equal to 100-fold more active against CDK5 than CDK2) | 10 to 100 |
| CN(C)[C@H]1CC[C@@H](N(CC(=O)O)c2ccc3cnc(Nc4ccc(-n5ccc(CO)n5)cc4F)cc3n2)CC1 [Compound 182, [[7-([2-fluoro-4-[3-(hydroxymethyl)pyrazol-1-yl]phenyl]amino)-1,6-naphthyridin-2-yl][(1s,4s)-4-(dimethylamino)cyclohexyl]amino]acetic acid] | > 1000 | ++ (greater than 10-fold and less than or equal to 100-fold more active against CDK5 than CDK2) | > 1000 |
| CC(c1ccc2cnc(Nc3ccc(-n4ccc(C(=O)O)n4)cc3F)cc2n1)C1CCN(C)CC1 (stereo not drawn) [Compound 324] | 10 to 100 | +++ (greater than 100-fold more active against CDK5 than CDK2) | > 1000 |
| CN1CCC(C(O)(c2ccc3cnc(Nc4ccc(-n5cccn5)cc4F)cc3n2)C(F)(F)F)CC1 (single isomer, unassigned) [Compound 343, 2,2,2-trifluoro-1-(7-((2-fluoro-4-(1H-pyrazol-1-yl)phenyl)amino)-1,6-naphthyridin-2-yl)-1-(1-methylpiperidin-4-yl)ethan-1-ol] | 100 to 1000 | ++ (greater than 10-fold and less than or equal to 100-fold more active against CDK5 than CDK2) | > 1000 |
| N[C@H]1CC[C@@H](Sc2ccc3cnc(Nc4ccc(-n5cccn5)cc4F)cc3n2)CC1 [Compound 121, N-[2-fluoro-4-(pyrazol-1-yl)phenyl]-2-[[(1s,4s)-4-aminocyclohexyl]sulfanyl]-1,6-naphthyridin-7-amine] | < 10 | + (10-fold or less more active against CDK5 than CDK2) | 10 to 100 |
| N#CCN(c1ccc2cnc(Nc3ccc(-n4ccc(CO)n4)cc3F)cc2n1)C1CCNCC1 [Compound 162, 2-[[7-([2-fluoro-4-[3-(hydroxymethyl)pyrazol-1-yl]phenyl]amino)-1,6-naphthyridin-2-yl](piperidin-4-yl)amino]acetonitrile] | 100 to 1000 | ++ (greater than 10-fold and less than or equal to 100-fold more active against CDK5 than CDK2) | > 1000 |
| CN1CCC(C2(c3ccc4cnc(Nc5ccc(-n6ccc(CO)n6)cc5F)cc4n3)CC2)CC1 [Compound 312, [1-[3-fluoro-4-([2-[1-(1-methylpiperidin-4-yl)cyclopropyl]-1,6-naphthyridin-7-yl]amino)phenyl]pyrazol-3-yl]methanol] | 10 to 100 | ++ (greater than 10-fold and less than or equal to 100-fold more active against CDK5 than CDK2) | > 1000 |
| CC(c1ccc2cnc(Nc3ccc(-n4ccc(CO)n4)cc3F)cc2n1)C1CCN(C)CC1 (single isomer, unassigned) [Compound 186, [1-[3-fluoro-4-([2-[1-(1-methylpiperidin-4-yl)ethyl]-1,6-naphthyridin-7-yl]amino)phenyl]pyrazol-3-yl]methanol] | 10 to 100 | ++ (greater than 10-fold and less than or equal to 100-fold more active against CDK5 than CDK2) | > 1000 |
| CN(C)C(=O)c1ccn(-c2ccc(Nc3cc4nc(S(=O)(=O)C5CCN(CC6COC6)CC5)ccc4cn3)c(F)c2)n1 [Compound 338] | < 10 | +++ (greater than 100-fold more active against CDK5 than CDK2) | 100 to 1000 |
| CC(c1ccc2cnc(Nc3ccc(-n4ccc(CO)n4)cc3F)cc2n1)C1CCN(C)CC1 (single isomer, unassigned) [Compound 188, [1-[3-fluoro-4-([2-[1-(1-methylpiperidin-4-yl)ethyl]-1,6-naphthyridin-7-yl]amino)phenyl]pyrazol-3-yl]methanol] | < 10 | +++ (greater than 100-fold more active against CDK5 than CDK2) | 100 to 1000 |
| CN1CCC(S(=O)(=O)c2ccc3cnc(Nc4ccc(C(C)(C)C)cc4)cc3n2)CC1 [Compound 295] | < 10 | ++ (greater than 10-fold and less than or equal to 100-fold more active against CDK5 than CDK2) | 10 to 100 |
| COC(=O)c1cnn(-c2ccc(Nc3cc4nc(S(=O)(=O)C5CCN(C)CC5)ccc4cn3)c(F)c2)c1 [Compound 288] | < 10 | +++ (greater than 100-fold more active against CDK5 than CDK2) | > 1000 |
| CC1CCN(c2ccc(Nc3cc4nc(S(=O)(=O)C5CCN(C)CC5)ccc4cn3)cc2)CC1 [Compound 308] | < 10 | +++ (greater than 100-fold more active against CDK5 than CDK2) | 100 to 1000 |
| CN1CCC(C(O)c2ccc3cnc(Nc4ccc(-n5cccn5)cc4F)cc3n2)CC1 (single isomer, unassigned) [Compound 175, (7-[[2-fluoro-4-(pyrazol-1-yl)phenyl]amino]-1,6-naphthyridin-2-yl) (1-methylpiperidin-4-yl)methanol] | < 10 | +++ (greater than 100-fold more active against CDK5 than CDK2) | 100 to 1000 |
| COC(c1ccc2cnc(Nc3ccc(-n4cccn4)cc3F)cc2n1)C1CCN(C)CC1 (single isomer, unassigned) [Compound 391, N-[2-fluoro-4-(pyrazol-1-yl)phenyl]-2-[methoxy(1-methylpiperidin-4-yl)methyl]-1,6-naphthyridin-7-amine] | 100 to 1000 | ++ (greater than 10-fold and less than or equal to 100-fold more active against CDK5 than CDK2) | > 1000 |
| CN1CCC(C(O)c2ccc3cnc(Nc4ccc(-n5ccc(CO)n5)cc4F)cc3n2)CC1 (single isomer, unassigned) [Compound 254, [7-([2-fluoro-4-[3-(hydroxymethyl)pyrazol-1-yl]phenyl]amino)-1,6-naphthyridin-2-yl](1-methylpiperidin-4-yl)methanol] | < 10 | +++ (greater than 100-fold more active against CDK5 than CDK2) | 100 to 1000 |
| NC(=O)c1cccc(Nc2cc3nc(SC4CCNCC4)ccc3cn2)c1 [Compound 134, 3-[[2-(piperidin-4-ylsulfanyl)-1,6-naphthyridin-7-yl]amino]benzamide] | < 10 | ++ (greater than 10-fold and less than or equal to 100-fold more active against CDK5 than CDK2) | 10 to 100 |
| CN1CCC(S(=O)(=O)c2ccc3cnc(Nc4ccc(Cn5cncn5)cc4)cc3n2)CC1 [Compound 263] | < 10 | ++ (greater than 10-fold and less than or equal to 100-fold more active against CDK5 than CDK2) | 10 to 100 |
| Cc1ccc(F)c(Nc2cc3nc(C(O)(C4CCN(C)CC4)C(F)(F)F)ccc3cn2)c1 (stereo not drawn) [Compound 390] | 100 to 1000 | ++ (greater than 10-fold and less than or equal to 100-fold more active against CDK5 than CDK2) | > 1000 |
| CC(c1ccc2cnc(Nc3ccc(-n4cccn4)cc3F)cc2n1)C1CCN(C)CC1 (stereo not drawn) [Compound 386] | < 10 | ++ (greater than 10-fold and less than or equal to 100-fold more active against CDK5 than CDK2) | 100 to 1000 |
| CN1CCC(S(=O)(=O)c2ccc3cnc(Nc4ccc(-c5ncon5)cc4F)cc3n2)CC1 [Compound 376] | 100 to 1000 | + (10-fold or less more active against CDK5 than CDK2) | 100 to 1000 |
